The source of these data is ChEMBL document CHEMBL1201862, “PubChem BioAssay data set” (2004).

Among the test systems are NCI-H226; LOX IMVI; SF-539; MDA-MB-435; NCI-H522; EKVX; SNB-19; TK-10; HOP-62; PC-3; SK-OV-3; HL-60; DU-145; OVCAR-8; IGROV-1; OVCAR-3; KM12; MDA-N; SN12C; SK-MEL-5.
Assay in all cases: NCI tumour cell line growth inhibition, 48 h

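Five compound concentrations were applied to cells in 96-well plates for 48 hours; endpoints were derived by simple linear interpolation of the resulting dose-response curve. GI50 marks 50% less growth.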 Calls of active or inactive are those of the source. Cut-off read from the data, not from the text of the source: active = GI50 up to about 1.1 µM and inactive = higher.

With `C1CN(C23OC4(N5CCOCC5)C5C6CC(C7C6C4C72)C53)CCO1` (centres undefined), the GI50 in the test with NCI-H226 was > 100 µM (inactive); with LOX IMVI, > 100 µM (inactive); in the test with SF-539, > 100 µM (inactive); in the test with MDA-MB-435, > 100 µM (inactive); with NCI-H522 it was > 83.4 µM (inactive); in the test on EKVX it was > 100 µM (inactive). Also, the GI50 with SNB-19, in the test with TK-10, in the test with HOP-62, with PC-3, in the test with SK-OV-3 and in the test with HL-60 was > 100 µM (inactive) throughout. The GI50 in the test on DU-145, in the test with OVCAR-8, with IGROV-1, in the test with OVCAR-3, in the test on KM12 and in the test on MDA-N was > 100 µM (inactive) throughout. The GI50 with SN12C and with SK-MEL-5 was > 100 µM (inactive) each time.

In the case of `O=[N+]([O-])c1cc(Cl)cc2cc(Br)cnc12`, the GI50 in the test on NCI-H226 was 29.6 µM (inactive); with LOX IMVI it was > 31.6 µM (inactive); in the test with SF-539, > 31.6 µM (inactive); in the test on MDA-MB-435, > 31.6 µM (inactive); in the test on NCI-H522 it was 29.6 µM (inactive); with EKVX, > 31.6 µM (inactive). Besides, the GI50 with SNB-19 is 27.8 µM (inactive); with TK-10, 27.7 µM (inactive); in the test on HOP-62, > 31.6 µM (inactive); in the test on PC-3, > 31.6 µM (inactive); in the test on SK-OV-3, > 10 µM (inactive); in the test with HL-60, > 31.6 µM (inactive). The GI50 is > 31.6 µM (inactive) with DU-145; 24.1 µM (inactive) in the test with OVCAR-8; > 31.6 µM (inactive) in the test on OVCAR-3; > 10 µM (inactive) with KM12; > 31.6 µM (inactive) in the test with MDA-N; > 31.6 µM (inactive) in the test on SN12C. Moreover, in the test on SK-MEL-5, the GI50 is 16.7 µM (inactive).

On to `CC1(Br)Cc2ccccc2C1=O` (centres undefined), for which the GI50 is 2.34 µM (inactive) with NCI-H226; 3.09 µM (inactive) with LOX IMVI; 4.98 µM (inactive) in the test on SF-539; 4.47 µM (inactive) in the test on MDA-MB-435; 4.14 µM (inactive) in the test on NCI-H522; 3.27 µM (inactive) with EKVX. The GI50 was 33.3 µM (inactive) with SNB-19; 16.1 µM (inactive) with TK-10; 15.3 µM (inactive) in the test with HOP-62; 10.3 µM (inactive) in the test on PC-3; 9.06 µM (inactive) with SK-OV-3; 2.79 µM (inactive) in the test with HL-60. Further, the GI50 in the test with DU-145 was 13.7 µM (inactive); in the test with OVCAR-8, 8.57 µM (inactive); in the test on IGROV-1, 4.12 µM (inactive); in the test with OVCAR-3 it was 8.99 µM (inactive); in the test with KM12 it was 12.6 µM (inactive); in the test on MDA-N, 3.92 µM (inactive). In addition, the GI50 with SN12C is 7.59 µM (inactive); in the test with SK-MEL-5, 5.71 µM (inactive).

Turning to `Nc1nc(-c2cc(-c3cccc4ccccc34)nc(N)n2)cc(-c2cccc3ccccc23)n1`, the GI50 in the test on NCI-H226, with LOX IMVI, in the test with SF-539, in the test on MDA-MB-435, in the test on NCI-H522 and in the test on EKVX was > 100 µM (inactive) each time. Also, the GI50 with SNB-19, with TK-10, in the test on HOP-62, in the test on PC-3, in the test on SK-OV-3 and in the test with HL-60 was > 100 µM (inactive) throughout. Moreover, the GI50 in the test on DU-145, with OVCAR-8, in the test on IGROV-1, with OVCAR-3, with KM12 and in the test with MDA-N was > 100 µM (inactive) in each case. For the same molecule, the GI50 in the test on SN12C and in the test on SK-MEL-5 was > 100 µM (inactive) throughout.

As for `COC(=O)CCn1cnc2c(SC)ncnc21`, the GI50 with NCI-H226, with LOX IMVI, in the test on SF-539, in the test on MDA-MB-435, with NCI-H522 and in the test with EKVX was > 100 µM (inactive) each time. Further, the GI50 in the test on SNB-19, in the test with TK-10, in the test on HOP-62, in the test on PC-3, with SK-OV-3 and with HL-60 was > 100 µM (inactive) each time. The GI50 in the test on DU-145, with OVCAR-8, in the test with IGROV-1, in the test with OVCAR-3, with KM12 and in the test with MDA-N was > 100 µM (inactive) each time. Further, the GI50 with SN12C and with SK-MEL-5 was > 100 µM (inactive) each time.

Regarding `CC1(C)OC2C(CO)OC(n3ccc(=O)[nH]c3=O)C2O1` (centres undefined), the GI50 in the test on NCI-H226, in the test with LOX IMVI, in the test on SF-539, with MDA-MB-435, in the test with NCI-H522 and in the test on EKVX was > 100 µM (inactive) throughout. For the same molecule, the GI50 in the test with SNB-19, in the test with TK-10, with HOP-62, in the test with PC-3, in the test with SK-OV-3 and with HL-60 was > 100 µM (inactive) each time. For the same molecule, the GI50 in the test on DU-145, in the test with OVCAR-8, in the test with IGROV-1, in the test with OVCAR-3, with MDA-N and with SN12C was > 100 µM (inactive) in each case. For the same molecule, the GI50 in the test on SK-MEL-5 was > 100 µM (inactive).

In the case of `CC1OC(OC2C(Oc3cc(O)c4c(c3)O[C@H](c3ccc(O)cc3)CC4=O)OC(CO)C(O)C2O)C(O)C(O)C1O` (some centres undefined), the GI50 in the test on NCI-H226, in the test with LOX IMVI, in the test on SF-539, in the test with MDA-MB-435, with NCI-H522 and in the test on EKVX was > 100 µM (inactive) each time. Further, the GI50 with TK-10, with HOP-62, with PC-3, with SK-OV-3, with HL-60 and in the test with DU-145 was > 100 µM (inactive) in each case. Moreover, the GI50 in the test with OVCAR-8, in the test on IGROV-1, with OVCAR-3, in the test with KM12, in the test on MDA-N and in the test on SN12C was > 100 µM (inactive) each time. Also, the GI50 in the test with SK-MEL-5 is > 100 µM (inactive).

`Nn1c(CCCCCCCCc2nnc(-c3c(O)ccc4ccccc34)n2N)nnc1-c1c(O)ccc2ccccc12`: the GI50 with NCI-H226, in the test with LOX IMVI, in the test on SF-539, in the test on MDA-MB-435, with NCI-H522 and with SNB-19 was > 100 µM (inactive) throughout. For the same molecule, the GI50 in the test with TK-10, in the test with HOP-62, in the test on PC-3, in the test on SK-OV-3, in the test with HL-60 and in the test on DU-145 was > 100 µM (inactive) throughout. Moreover, the GI50 in the test with OVCAR-8, in the test with IGROV-1, in the test on OVCAR-3, in the test on KM12, in the test on MDA-N and in the test on SN12C was > 100 µM (inactive) throughout. For the same molecule, the GI50 in the test with SK-MEL-5 was > 100 µM (inactive).

As for `Oc1ccccc1C1=NOC(c2ccc(C(F)(F)F)cc2)C1` (centres undefined), the GI50 in the test with NCI-H226, in the test on LOX IMVI, in the test on SF-539, in the test on MDA-MB-435, in the test with NCI-H522 and with EKVX was > 50 µM (inactive) in each case. Besides, the GI50 in the test with SNB-19, with HOP-62, with PC-3, in the test with SK-OV-3, in the test with HL-60 and in the test with DU-145 was > 50 µM (inactive) throughout. Further, the GI50 in the test with OVCAR-8 is > 50 µM (inactive); with IGROV-1, 0.527 µM (active); in the test on OVCAR-3, > 50 µM (inactive); with KM12, > 50 µM (inactive); with MDA-N, > 50 µM (inactive); in the test on SN12C it was > 50 µM (inactive). Besides, the GI50 in the test with SK-MEL-5 was > 50 µM (inactive).

In the case of `COC(=O)C1=C(O)CCCC(CCC(C)=O)=C1`, the GI50 with NCI-H226 is > 100 µM (inactive); in the test on LOX IMVI, 38.2 µM (inactive); in the test on SF-539, 22.2 µM (inactive); with MDA-MB-435 it was 69.5 µM (inactive); in the test with NCI-H522 it was 12.5 µM (inactive); in the test with EKVX, 83.2 µM (inactive). The GI50 in the test on SNB-19 was > 100 µM (inactive); in the test with TK-10, > 100 µM (inactive); in the test with PC-3, > 100 µM (inactive); with SK-OV-3, > 100 µM (inactive); with HL-60, 3.99 µM (inactive); with DU-145 it was 41.2 µM (inactive). Moreover, the GI50 in the test on OVCAR-8 was 56.5 µM (inactive); with IGROV-1, 41.2 µM (inactive); in the test with OVCAR-3, 48.8 µM (inactive); with KM12 it was 80.2 µM (inactive); in the test with MDA-N, 31.9 µM (inactive); in the test on SN12C, 41 µM (inactive). For the same molecule, the GI50 in the test on SK-MEL-5 is > 100 µM (inactive).
